Test results published in patent US20240182481A1 (Tango Therapeutics, Inc., priority 2021, published 2024).

What was measured:
USP1-UAF1 = USP1-UAF1 (Homo sapiens, UniProt O94782); assay: Ubiquitin Rhodamine assay for USP1-UAF1 activity; format: biochemical
Experimental: Certain compounds of the disclosure were assessed for USP1-UAF1 activity in a Ubiquitin Rhodamine assay as described in Example 135.

[1] = tested on: HCC1954 (BRCA1 WT) cell line; assay: Viability assay in BRCA1 WT cell line HCC1954; format: cell-based; conditions: Homo sapiens, read-out: HCC 1954 IC50 rel IC50
Description: (§1) Table 1 also indicates IC50 values in a viability assay for a non-isogenic pair of BRCA1 mutant (column 5—MDA-MB-436) and BRCA1 WT (column 6—HCC1954) cell lines. These values indicate the effect of treatment with compound on cell survival.

monoubiquitinated PCNA = assay: AlphaLISA assay measuring monoubiquitinated PCNA in MDA-MB-436; format: cell-based; conditions: Homo sapiens, read-out: Alpha LISA IC50
Description: Table 1 also indicates IC50 values for exemplary compounds in an AlphaLISA assay measuring monoubiquitinated PCNA in a BRCA1 mutant cell line (MDA-MB-436; column 7).

[2] = tested on: MDA-MB-436 (BRCA1 mutant) cell line; assay: Viability assay in BRCA1 mutant cell line MDA-MB-436; format: cell-based; conditions: Homo sapiens, MDA-MB-436, viability, BRCA1 mutant MDA-MB-436; read-out: MDA-MB-436 rel IC50
Description: as §1

Sequence of USP1-UAF1 (O94782 whole entry): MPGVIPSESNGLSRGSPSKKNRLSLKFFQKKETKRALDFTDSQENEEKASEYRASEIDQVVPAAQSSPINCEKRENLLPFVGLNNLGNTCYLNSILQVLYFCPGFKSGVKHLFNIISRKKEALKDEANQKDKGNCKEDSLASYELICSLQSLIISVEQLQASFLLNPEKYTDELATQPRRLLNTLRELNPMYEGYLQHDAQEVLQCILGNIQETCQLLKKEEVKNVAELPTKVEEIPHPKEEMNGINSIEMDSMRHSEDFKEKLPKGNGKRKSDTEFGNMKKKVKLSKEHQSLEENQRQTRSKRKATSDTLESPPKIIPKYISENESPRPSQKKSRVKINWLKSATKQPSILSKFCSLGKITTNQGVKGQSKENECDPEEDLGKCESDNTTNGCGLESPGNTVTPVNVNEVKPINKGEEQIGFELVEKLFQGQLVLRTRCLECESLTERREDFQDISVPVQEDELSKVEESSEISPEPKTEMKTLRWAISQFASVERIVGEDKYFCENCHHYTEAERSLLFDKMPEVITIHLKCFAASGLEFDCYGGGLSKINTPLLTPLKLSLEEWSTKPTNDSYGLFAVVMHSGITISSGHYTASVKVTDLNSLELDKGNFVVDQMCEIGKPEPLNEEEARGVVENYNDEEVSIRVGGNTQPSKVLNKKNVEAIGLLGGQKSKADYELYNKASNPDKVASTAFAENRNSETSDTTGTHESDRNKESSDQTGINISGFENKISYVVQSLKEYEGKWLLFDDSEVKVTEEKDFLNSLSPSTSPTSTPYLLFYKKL
Sequence of USP1-UAF1 (Q8TAF3 whole entry partner): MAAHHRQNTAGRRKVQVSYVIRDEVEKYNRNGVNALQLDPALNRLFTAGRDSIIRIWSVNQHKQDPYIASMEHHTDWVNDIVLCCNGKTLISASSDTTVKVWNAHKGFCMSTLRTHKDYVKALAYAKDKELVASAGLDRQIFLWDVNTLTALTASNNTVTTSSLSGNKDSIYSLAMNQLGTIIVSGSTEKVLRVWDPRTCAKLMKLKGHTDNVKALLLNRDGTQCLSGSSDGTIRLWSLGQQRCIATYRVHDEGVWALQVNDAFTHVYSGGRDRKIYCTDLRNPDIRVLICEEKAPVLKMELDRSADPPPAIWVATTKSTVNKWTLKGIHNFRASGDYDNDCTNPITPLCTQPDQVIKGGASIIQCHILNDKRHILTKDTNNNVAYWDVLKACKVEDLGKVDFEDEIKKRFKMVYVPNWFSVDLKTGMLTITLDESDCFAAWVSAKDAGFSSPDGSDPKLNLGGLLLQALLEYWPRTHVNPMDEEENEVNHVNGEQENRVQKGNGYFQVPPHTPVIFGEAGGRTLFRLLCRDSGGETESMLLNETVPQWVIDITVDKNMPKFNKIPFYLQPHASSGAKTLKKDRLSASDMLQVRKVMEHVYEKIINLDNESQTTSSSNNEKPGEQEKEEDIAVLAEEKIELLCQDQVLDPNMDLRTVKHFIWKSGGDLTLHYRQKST

IC50 (USP1-UAF1) [nM]	IC50 [1] [µM]	IC50 (monoubiquitinated PCNA) [nM]	IC50 [2] [nM]	Compound
< 30	≥ 10	< 100	< 100	COc1ncnc(C(C)C)c1-c1ncc2[nH]cc(Cc3ccc(-c4nc(C(F)(F)F)cn4C)cc3)c2n1 [Compound 105, 2-(4-isopropyl-6-methoxy-pyrimidin-5-yl)-7-[[4-[1-methyl-4-(trifluoromethyl)imidazol-2-yl]phenyl]methyl]-5H-pyrrolo[3,2-d]pyrimidine]
< 30	≥ 10	< 100	< 100	CCn1cc(C(F)(F)F)nc1-c1ccc(Cc2nn(C)c3cnc(-c4c(OC)ncnc4C4CC4)nc23)cc1 [Compound 106, 5-(4-cyclopropyl-6-methoxypyrimidin-5-yl)-3-(4-(1-ethyl-4-(trifluoromethyl)-1H-imidazol-2-yl)benzyl)-1-methyl-1H-pyrazolo[4,3-d]pyrimidine]
30 to 100	≥ 10	< 100	< 100	COc1ncnc(C2CC2)c1-c1ncc2c(n1)c(Cc1ccc(-n3nc(C#N)cc3C)cc1)cn2C [Compound 107, 1-[4-[[2-(4-cyclopropyl-6-methoxy-pyrimidin-5-yl)-5-methyl-pyrrolo[3,2-d]pyrimidin-7-yl]methyl]phenyl]-5-methyl-pyrazole-3-carbonitrile]
< 30	≥ 10	250 to 10000	100 to 250	COc1ncnc(C2CC2)c1-c1nc(F)c2[nH]cc(Cc3ccc(-c4nc(C(F)(F)F)cn4C)cc3)c2n1 [Compound 110]
30 to 100	≥ 10	< 100	< 100	CCOc1ncnc(C2CC2)c1-c1ncc2[nH]cc(Cc3ccc(-c4nc(C(F)(F)F)cn4C)cc3)c2n1 [Compound 111, 2-(4-cyclopropyl-6-ethoxy-pyrimidin-5-yl)-7-[[4-[1-methyl-4-(trifluoromethyl)imidazol-2-yl]phenyl]methyl]-5H-pyrrolo[3,2-d]pyrimidine]
< 30	≥ 10	< 100	< 100	COc1ncnc(C2CC2)c1-c1ncc2[nH]cc(Cc3ccc(-c4nc(C(F)(F)F)cn4C)c(C)c3)c2n1 [Compound 113]
< 30	≥ 10	< 100	< 100	COc1ncnc(C2CC2)c1-c1nc(C(F)(F)F)c2[nH]nc(Cc3ccc(-c4nc(C(F)(F)F)cn4C)cc3)c2n1 [Compound 114, 5-(4-cyclopropyl-6-methoxy-pyrimidin-5-yl)-3-[[4-[1-methyl-4-(trifluoromethyl)imidazol-2-yl]phenyl]methyl]-7-(trifluoromethyl)-1H-pyrazolo[4,3-d]pyrimidine]
< 30	≥ 10	< 100	< 100	COc1ncnc(C2CC2)c1-c1nc(C)c2[nH]nc(Cc3ccc(-c4nc(C(F)(F)F)cn4C)cc3)c2n1 [Compound 115, 5-(4-cyclopropyl-6-methoxypyrimidin-5-yl)-7-methyl-3-(4-(1-methyl-4-(trifluoromethyl)-1H-imidazol-2-yl)benzyl)-1H-pyrazolo[4,3-d]pyrimidine]
< 30	≥ 10	100 to 250	< 100	COc1ccnc(C2CC2)c1-c1ncc2[nH]nc(Cc3ccc(-c4nc(C(F)(F)F)cn4C)cc3)c2n1 [Compound 116]
< 30	≥ 10	< 100	< 100	CC(C)Oc1ncnc(C2CC2)c1-c1ncc2[nH]cc(Cc3ccc(-c4nc(C(F)(F)F)cn4C)cc3)c2n1 [Compound 118, 2-(4-cyclopropyl-6-isopropoxy-pyrimidin-5-yl)-7-[[4-[1-methyl-4-(trifluoromethyl)imidazol-2-yl]phenyl]methyl]-5H-pyrrolo[3,2-d]pyrimidine]
100 to 10000	0.25 to 10	250 to 10000	100 to 250	COc1ncnc(C2CC2)c1-c1ncc2[nH]c(CN)c(Cc3ccc(-c4nc(C(F)(F)F)cn4C)cc3)c2n1 [Compound 119]
< 30	≥ 10	< 100	< 100	COc1ncnc(C2CC2)c1-c1ncc2[nH]cc(Cc3ccc(-c4nc(C(F)(F)F)cn4C)cc3F)c2n1 [Compound 120, 2-(4-cyclopropyl-6-methoxy-pyrimidin-5-yl)-7-[[2-fluoro-4-[1-methyl-4-(trifluoromethyl)imidazol-2-yl]phenyl]methyl]-5H-pyrrolo[3,2-d]pyrimidine]
< 30	≥ 10	< 100	< 100	COc1ncnc(C2CC2)c1-c1nc(C(F)(F)F)c2[nH]cc(Cc3ccc(-c4nc(C(F)(F)F)cn4C)cc3)c2n1 [Compound 121, 2-(4-cyclopropyl-6-methoxy-pyrimidin-5-yl)-7-[[4-[1-methyl-4-(trifluoromethyl)imidazol-2-yl]phenyl]methyl]-4-(trifluoromethyl)-5H-pyrrolo[3,2-d]pyrimidine]
< 30	≥ 10	250 to 10000	100 to 250	Cn1cc(C(F)(F)F)nc1-c1ccc(Cc2c[nH]c3cnc(-c4c(C5CC5)ccnc4C4CC4)nc23)cc1 [Compound 122]
< 30	0.25 to 10	< 100	< 100	CCOc1cc(C(F)(F)F)nn1-c1ccc(Cc2n[nH]c3cnc(-c4c(OC)ncnc4C4CC4)nc23)cc1 [Compound 123, 5-(4-cyclopropyl-6-methoxy-pyrimidin-5-yl)-3-[[4-[5-ethoxy-3-(trifluoromethyl)pyrazol-1-yl]phenyl]methyl]-1H-pyrazolo[4,3-d]pyrimidine]
30 to 100	≥ 10	100 to 250	< 100	COc1ncnc(C(C)(C)C)c1-c1ncc2[nH]cc(Cc3ccc(-c4nc(C(F)(F)F)cn4C)cc3)c2n1 [Compound 124, 2-(4-tert-butyl-6-methoxy-pyrimidin-5-yl)-7-[[4-[1-methyl-4-(trifluoromethyl)imidazol-2-yl]phenyl]methyl]-5H-pyrrolo[3,2-d]pyrimidine]
< 30	0.25 to 10	< 100	< 100	COc1ncnc(C2CC2)c1-c1ncc2c(n1)c(Cc1ccc(-c3nc(C(F)(F)F)cn3C)cc1)cn2CC(F)(F)F [Compound 125, 2-(4-cyclopropyl-6-methoxy-pyrimidin-5-yl)-7-[[4-[1-methyl-4-(trifluoromethyl)imidazol-2-yl]phenyl]methyl]-5-(2,2,2-trifluoroethyl)pyrrolo[3,2-d]pyrimidine]
< 30	0.25 to 10	< 100	< 100	CCOc1ncnc(C2CC2)c1-c1ncc2[nH]nc(Cc3ccc(-c4nc(C(F)(F)F)cn4C)cc3)c2n1 [Compound 126, 5-(4-cyclopropyl-6-ethoxy-pyrimidin-5-yl)-3-[[4-[1-methyl-4-(trifluoromethyl)imidazol-2-yl]phenyl]methyl]-1H-pyrazolo[4,3-d]pyrimidine]
< 30	0.25 to 10	100 to 250	100 to 250	COc1ncnc(C2CC2)c1-c1ncc2[nH]nc(Cc3cc(F)c(-n4nc(C(F)(F)F)cc4C)c(F)c3)c2n1 [Compound 129]
100 to 10000	≥ 10	< 100	< 100	COc1ncnc(C2CC2)c1-c1ncc2nn(CC(F)(F)F)c(Cc3ccc(-c4nc(C(F)(F)F)cn4C)cc3)c2n1 [Compound 131, 5-(4-cyclopropyl-6-methoxy-pyrimidin-5-yl)-3-[[4-[1-methyl-4-(trifluoromethyl)imidazol-2-yl]phenyl]methyl]-2-(2,2,2-trifluoroethyl)pyrazolo[4,3-d]pyrimidine]
< 30	≥ 10	< 100	< 100	CC(C)n1cc(C(F)(F)F)nc1-c1ccc(Cc2c[nH]c3cnc(-c4c(OC(F)F)ncnc4C4CC4)nc23)cc1 [Compound 132]
30 to 100	≥ 10	100 to 250	< 100	COc1ncnc(C2CC2)c1-c1ncc2[nH]nc(Cc3ccc(-c4nc(C(F)(F)F)cn4C4COC4)cc3)c2n1 [Compound 133, 5-(4-cyclopropyl-6-methoxy-pyrimidin-5-yl)-3-[[4-[1-(oxetan-3-yl)-4-(trifluoromethyl)imidazol-2-yl]phenyl]methyl]-1H-pyrazolo[4,3-d]pyrimidine]
30 to 100	≥ 10	250 to 10000	100 to 250	COc1ncnc(C#N)c1-c1ncc2[nH]cc(Cc3ccc(-c4nc(C(F)(F)F)cn4C)cc3)c2n1 [Compound 134]
< 30	≥ 10	< 100	< 100	[2H]C([2H])([2H])n1cc(C(F)(F)F)nc1-c1ccc(Cc2c[nH]c3cnc(-c4c(OC)ncnc4C4CC4)nc23)cc1 [Compound 135, 2-(4-cyclopropyl-6-methoxy-pyrimidin-5-yl)-7-[[4-[1-(trideuteriomethyl)-4-(trifluoromethyl)imidazol-2-yl]phenyl]methyl]-5H-pyrrolo[3,2-d]pyrimidine]
< 30	≥ 10	250 to 10000	100 to 250	COc1cccc(OC)c1-c1ncc2[nH]nc(Cc3ccc(-c4nc(C(F)(F)F)cn4C)cc3)c2n1 [Compound 136]
